Paper PMC7083837 (Nature Communications, 2020)
Several values for one entry are separate records, joined by “and”; a condition that tells them apart may be missing. Equal entries are not always repeated.

How the values were obtained:
SERT WT [1] = target: T1, SERT WT (Homo sapiens, UniProt P31645); experiment: [3H]5-HT uptake in intact COS-7 cells; assay type: cell-based; set-up: 5-HT uptake: unit not given here; details: for 5-HT uptake: Fig 5B
T1 construct: expressed in transfected cells; host or cells: COS-7
T1 sequence (P31645 whole entry): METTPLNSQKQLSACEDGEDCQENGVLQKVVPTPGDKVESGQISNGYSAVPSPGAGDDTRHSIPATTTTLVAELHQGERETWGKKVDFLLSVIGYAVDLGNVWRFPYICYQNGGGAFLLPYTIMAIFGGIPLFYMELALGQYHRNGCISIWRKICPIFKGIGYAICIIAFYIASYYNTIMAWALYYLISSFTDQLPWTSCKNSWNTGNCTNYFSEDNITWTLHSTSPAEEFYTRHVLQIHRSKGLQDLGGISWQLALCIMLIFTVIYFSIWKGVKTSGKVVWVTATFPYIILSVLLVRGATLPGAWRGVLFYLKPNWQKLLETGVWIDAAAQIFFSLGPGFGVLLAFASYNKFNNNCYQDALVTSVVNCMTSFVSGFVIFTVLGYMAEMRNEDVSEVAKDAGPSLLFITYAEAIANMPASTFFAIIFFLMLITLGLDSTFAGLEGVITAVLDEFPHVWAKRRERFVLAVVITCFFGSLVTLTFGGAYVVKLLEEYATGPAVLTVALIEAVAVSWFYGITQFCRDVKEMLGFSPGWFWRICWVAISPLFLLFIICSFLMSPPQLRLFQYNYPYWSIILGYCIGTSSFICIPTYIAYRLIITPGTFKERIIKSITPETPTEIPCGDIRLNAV

SERT WT [2] = target: T1, SERT WT; experiment: [3H]IMI competitive binding on COS-7 membranes
Experimental: [^3H]S-CIT and [^3H]IMI competitive binding experiments were performed on membrane preparations of COS-7 cells transiently transfected with SERT WT. Membrane aliquots were mixed with membrane buffer containing 5–10 nM of either [^3H]S-CIT or [^3H]IMI and Lu AF60097 in the indicated concentrations to a final volume of 300 µL. The binding experiments were incubated 1 h at room temperature and subsequently filtered, washed and counted as described under ‘[^3H]IMI and [^3H]S-CIT dissociation rate assay’. Non-specific binding was determined by adding 5 µM paroxetine.

SERT WT [3] = target: T1, SERT WT; experiment: [3H]S-CIT dissociation rate assay (allosteric potency); assay type: binding
SERT A331D = target: T2, SERT A331D (Homo sapiens, UniProt P31645, A331D); experiment: [3H]IMI dissociation rate assay; assay type: binding; details: A331D
T2 construct: expressed in transfected cells; host or cells: COS-7
T2 sequence (P31645 whole entry A331D): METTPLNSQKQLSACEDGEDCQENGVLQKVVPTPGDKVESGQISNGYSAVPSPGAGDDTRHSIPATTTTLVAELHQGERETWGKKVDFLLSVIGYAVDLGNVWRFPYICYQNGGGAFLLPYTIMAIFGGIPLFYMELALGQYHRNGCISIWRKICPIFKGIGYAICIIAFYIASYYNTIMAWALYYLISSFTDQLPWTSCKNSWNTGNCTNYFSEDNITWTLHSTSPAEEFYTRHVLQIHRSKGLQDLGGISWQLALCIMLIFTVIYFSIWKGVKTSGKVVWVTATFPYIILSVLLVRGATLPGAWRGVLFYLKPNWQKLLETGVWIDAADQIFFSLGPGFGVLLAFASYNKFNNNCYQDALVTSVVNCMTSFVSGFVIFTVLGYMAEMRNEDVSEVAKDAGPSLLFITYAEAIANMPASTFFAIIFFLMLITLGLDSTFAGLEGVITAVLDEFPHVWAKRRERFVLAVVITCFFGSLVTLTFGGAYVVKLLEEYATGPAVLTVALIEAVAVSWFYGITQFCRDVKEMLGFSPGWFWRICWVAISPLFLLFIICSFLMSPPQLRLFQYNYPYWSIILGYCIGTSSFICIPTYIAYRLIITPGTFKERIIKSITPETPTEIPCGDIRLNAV
Experimental: All mutations were confirmed by DNA sequencing. The used primers were
The allosteric potency was calculated as previously described.

`NC(=O)c1ccc2c(c1)CO[C@@]2(CCCN1CCC(c2ccc3ccc(=O)[nH]c3c2)CC1)c1ccc(F)cc1` [Lu AF60097, (S)-1-(4-fluorophenyl)-1-(3-(4-(2-oxo-1,2-dihydroquinolin-7-yl)piperidin-1-yl)propyl)-1,3-dihydroisobenzofuran-5-carboxamide] was tested, and the “Vmax 5-HT” value (SERT WT [1]; 10 nM Lu AF60097) was 1232 ± 48 fmol/min, the “Vmax 5-HT” value (SERT WT [1]; 20 nM Lu AF60097) was 1279 ± 64 fmol/min and the “Vmax 5-HT” value (SERT WT [1]; 40 nM Lu AF60097) was 1007 ± 58 fmol/min. The “Vmax 5-HT” value (SERT WT [1]; 80 nM Lu AF60097) was 1361 ± 78 fmol/min, the “Vmax 5-HT” value (SERT WT [1]; 160 nM Lu AF60097) was 1235 ± 34 fmol/min and the “Vmax 5-HT” value (SERT WT [1]; 320 nM Lu AF60097) was 973 ± 25 fmol/min. For the same compound, the “Vmax 5-HT” value (SERT WT [1]; 640 nM Lu AF60097) was 971 ± 21 fmol/min, the inhibition at 0.027 µM (SERT WT [1]; COS-7, read-out: Decrease (inhibition) of [^3H]5-HT uptake relative to control, IMI 4 nM, Lu AF60097 27 nM, alone or together) was 5 ± 1.8% and the 5-HT uptake (SERT WT [1]; 0.1474 µM 5HT, 10 nM AF60097) was 289.4 and 268.7 and 257.4 and 246.6 and 314.6. For the same compound, the 5-HT uptake (SERT WT [1]; 0.1474 µM 5HT, 20 nM AF60097) was 295.7 and 305.6 and 246.2 and 292.1 and 271.4, the 5-HT uptake (SERT WT [1]; 0.1474 µM 5HT, 80 nM AF60097) was 149 and 175.1 and 138.2 and 177.3 and 172.8 and the 5-HT uptake (SERT WT [1]; 0.1474 µM 5HT, 160 nM AF60097) was 193.5 and 184.1 and 172.4 and 177.3 and 155.3. The 5-HT uptake (SERT WT [1]; 0.1474 µM 5HT, 320 nM AF60097) was 124.2 and 120.2 and 98.55 and 160.4 and 125, the 5-HT uptake (SERT WT [1]; 0.1474 µM 5HT, 640 nM AF60097) was 82.89 and 76.41 and 75.6 and 73.71 and the 5-HT uptake (SERT WT [1]; 0.2395 µM 5HT, 10 nM AF60097) was 401.9 and 351.5 and 378.9 and 356.9 and 437.9. For the same compound, the 5-HT uptake (SERT WT [1]; 0.2395 µM 5HT, 20 nM AF60097) was 431.1 and 402.3 and 370.8 and 428 and 381.2, the 5-HT uptake (SERT WT [1]; 0.2395 µM 5HT, 80 nM AF60097) was 239.4 and 237.2 and 197.1 and 278.1 and 258.3 and the 5-HT uptake (SERT WT [1]; 0.2395 µM 5HT, 160 nM AF60097) was 283.1 and 275.9 and 262.8 and 254.3 and 202.5. The 5-HT uptake (SERT WT [1]; 0.2395 µM 5HT, 320 nM AF60097) was 170.4 and 178.2 and 155 and 215.5 and 193.6, the 5-HT uptake (SERT WT [1]; 0.2395 µM 5HT, 640 nM AF60097) was 119.3 and 114.2 and 108 and 121.2 and the 5-HT uptake (SERT WT [1]; 0.4844 µM 5HT, 10 nM AF60097) was 585. For the same compound, the 5-HT uptake (SERT WT [1]; 0.4844 µM 5HT, 20 nM AF60097) was 624.2 and 642.2 and 563.4 and 555.8 and 512.1, the 5-HT uptake (SERT WT [1]; 0.4844 µM 5HT, 160 nM AF60097) was 469.4 and 426.6 and 404.6 and 365.9 and 356 and the 5-HT uptake (SERT WT [1]; 0.4844 µM 5HT, 320 nM AF60097) was 301.6 and 284.3 and 264.9. The “5-HT uptake relative to ctrl (ctrl = 100)” value (SERT WT [1]; Fig 5C, 27 nM AF60097) was 100 and 97 and 96 and 91 and 88, the “[^3H]5-HT uptake (in % of buffer/control)” value (SERT WT [1]; IMI 4 nM, Lu AF60097 27 nM, alone or together) was 95 ± 1.8% and the Ki (SERT WT [1]; SERT WT) was 220 nM. For the same compound, the IC50 (SERT WT [1]; hSERT in COS-7 cells) was 207 nM, the “Displacement of [^3H]IMI in binding experiment” value (SERT WT [2]; equilibrium binding, SERT WT membranes) was “not displaced” and the “Displacement of [3H]IMI binding (normalized bound, Fig S6)” value (SERT WT [2]; log[Lu AF60097] -4.9586) was 0.8037 and 0.8081 and 0.979. The “Displacement of [3H]IMI binding (normalized bound, Fig S6)” value (SERT WT [2]; log[Lu AF60097] -5.2596) was 0.9221 and 1.029 and 1.04, the “Displacement of [3H]IMI binding (normalized bound, Fig S6)” value (SERT WT [2]; log[Lu AF60097] -5.5607) was 1.05 and 0.9989 and 1.0302 and the “Displacement of [3H]IMI binding (normalized bound, Fig S6)” value (SERT WT [2]; log[Lu AF60097] -5.8617) was 1.118 and 1.161 and 1.01. The “Displacement of [3H]IMI binding (normalized bound, Fig S6)” value (SERT WT [2]; log[Lu AF60097] -6.1627) was 1.173 and 1.156 and 0.9563, the “Displacement of [3H]IMI binding (normalized bound, Fig S6)” value (SERT WT [2]; log[Lu AF60097] -6.4638) was 1.154 and 1.04 and 1.011 and the “Displacement of [3H]IMI binding (normalized bound, Fig S6)” value (SERT WT [2]; log[Lu AF60097] -6.7648) was 1.061 and 1.088 and 0.8905. For the same compound, the “Displacement of [3H]IMI binding (normalized bound, Fig S6)” value (SERT WT [2]; log[Lu AF60097] -7.0658) was 1.098 and 0.9993 and 0.8339, the “Displacement of [3H]IMI binding (normalized bound, Fig S6)” value (SERT WT [2]; log[Lu AF60097] -7.3668) was 1.049 and 0.9798 and the “Displacement of [3H]IMI binding (normalized bound, Fig S6)” value (SERT WT [2]; log[Lu AF60097] -7.6679) was 1.052 and 1.0159. For the same compound, the “[^3H]S-CIT dissociation relative to control (source data Fig 3B)” value (SERT WT [3]; log conc -4) was 0.1541 and 0.1918 and 0.2298, the “[^3H]S-CIT dissociation relative to control (source data Fig 3B)” value (SERT WT [3]; log conc -4.47756) was 0.2646 and 0.3943 and 0.2986 and 0.219 and 0.3366 and the “[^3H]S-CIT dissociation relative to control (source data Fig 3B)” value (SERT WT [3]; log conc -4.95468) was 0.4248 and 0.6032 and 0.3921 and 0.3044 and 0.3481. The “[^3H]S-CIT dissociation relative to control (source data Fig 3B)” value (SERT WT [3]; log conc -5.4318) was 0.6087 and 0.8042 and 0.6275 and 0.541 and 0.6453, the “[^3H]S-CIT dissociation relative to control (source data Fig 3B)” value (SERT WT [3]; log conc -5.9101) was 0.7519 and 0.9034 and 0.8094 and 0.7437 and 0.8779 and the “[^3H]S-CIT dissociation relative to control (source data Fig 3B)” value (SERT WT [3]; log conc -6.38561) was 0.8673 and 0.9045 and 0.9664 and 0.838 and 0.8643. For the same compound, the “[^3H]S-CIT dissociation relative to control (source data Fig 3B)” value (SERT WT [3]; log conc -6.86273) was 0.9943 and 0.9294 and 0.9623, the IC50 (SERT WT [3]; read-out: Allosteric potency inhibition of [^3H]S-CIT dissociation (IC50)) was 6500 nM and the “ΔAP (mut/WT), change in allosteric potency relative to SERT WT” value (SERT A331D; [^3H]IMI dissociation) was 293. The “[^3H]IMI dissociation relative to control (source data Fig 4B)” value (SERT A331D; log conc -4.478) was 0.2078 and 0.1902 and 0.1898 and the “[^3H]IMI dissociation relative to control (source data Fig 4B)” value (SERT A331D; log conc -4.955) was 0.4404 and 0.4549 and 0.4274.
